# Data from patent US9458141B2, “Low molecular weight thyroid stimulating hormone receptor (TSHR) agonists” (The United States of America, as represented by the …, priority 2008, dated 2016).
# Target: T1, human TSHR (Homo sapiens, UniProt P16473)
# T1 construct: expressed in transfected cells
# Test: Homogeneous Time Resolved Fluorescence (HTRF) cAMP assay, TSHR cell line
# Assay type: cell-based
# Conditions: for AC50: HTRF cAMP, TSHR cell line, 30 minute incubation, read-out: AC50; for Emax: read-out: Maximum Activity compared to TSH, 100% activity = response of 30 mU/ml TSH, 0% = DMSO control; for Maximum Activity compared to TSH: 100% activity = response of 30 mU/ml TSH, 0% = DMSO control, in %
# Excerpt: Generation of Stable Cell-Lines Expressing TSHR, LHCGR or FSHR.
# cDNA for human TSHR was amplified by PCR from hTSHR-pSVL (1) and inserted into the pcDNA3.1(−)/hygromycin vector using restriction sites XhoI and BamHI. cDNA for human LHCGR was amplified by PCR from hLHR-pGS5 (2) and was inserted into the pcDNA3.1(+)/hygromycin vector using restriction sites BamHI and XhoI. The FSHR cDNA in pcDNA3.1 was obtained from the Missouri S&T cDNA Resource Center (www.cDNA.org) and was subcloned into the pcDNA3.1(−)/hygromycin vector. Constructs were confirmed by sequencing (MWG Biotech). HEK-EM 293 cells were transfected with the cDNA of TSHR, LHCGR or FSHR using FuGENE 6 Transfection reagent (Roche Diagnostics) according to the manufacturer's protocol. Two days after transfection cells were passaged and grown in Dulbecco's modified Eagle's Medium (DMEM) supplemented with 10% fetal bovine serum, 100 units/ml penicillin and 10 μg/ml streptomycin (Life Technologies Inc.) and with hygromycin (250 μg/ml) as a selection marker. After 7 to 10 days hygromycin-resistant clones were selected, and after a few days of further growth submitted for a cAMP assay to identify clones that stably express the appropriate receptor. Cell Culture. Cells stably expressing TSHR, LHCGR or FSHR and parental HEK 293 cells were maintained in DMEM medium containing 10% FBS, 100 units/ml Penicillin, 100 μg/ml Streptomycin, at 37° C. in 5% CO2. For the cells lines stably expressing TSHR, LHCGR or FSHR, additional 250 μg/ml Hygromycin was added during the cell culture. The cells were seeded at a density of 3 to 4 million cells in a T175 flask containing 35 ml of media and were allowed to grow for 3 days to reach 80-90% confluence. A flask of HEK 293 cells at this density generally yielded 30 million cells total. Homogeneous Time Resolved Fluorescence (HTRF) cAMP Assay. Compounds were assayed using a HTRF cAMP detection kit (Cisbio, Bedford, Mass.) on both TSHR cell line and parental cell line. Briefly, 750 cells were plated in 2.5 μl/well of complete media (DMEM containing 10% FCS) in 1536 well solid bottom white plates and 20 nl/well compound in DMSO solution or controls was added. Following 30 minute incubation at room temperature, 2.5 μl/well of labeled d2 cAMP and 2.5 μl/well of anti-cAMP antibody (both diluted 1:20 in lysis buffer) were added to each well using a flying reagent dispenser (Aurora Discovery, San Diego). Plates were measured using the Envision plate reader (PerkinElmer, Boston, Mass.) with excitation at 330 nm and emissions of 615 nm and 660 nm. Compound Preparation. […] Data Analysis. […] The EC50 values of compounds were calculated from the concentration-response curves by nonlinear regression analysis using Prism software (GraphPad Software, San Diego, Calif.). Confirmatory cAMP Assay and Test for Selectivity Towards TSHR 50,000 cells/well were plated in complete media (DMEM containing 10% FCS) in 96 well plates. […] Following aspiration of the medium after incubation with compounds, cells were lysed using lysis buffer of the cAMP-Screen Direct™ System (Applied Biosystems, Cat # CSD200). The cAMP content of the cell lysate was determined using the manufacturer's protocol. […] Below is a List of Compounds that were Assayed via the Homogeneous Time Resolved Fluorescence (HTRF) cAMP Assay.
# T1 sequence (P16473 21-764): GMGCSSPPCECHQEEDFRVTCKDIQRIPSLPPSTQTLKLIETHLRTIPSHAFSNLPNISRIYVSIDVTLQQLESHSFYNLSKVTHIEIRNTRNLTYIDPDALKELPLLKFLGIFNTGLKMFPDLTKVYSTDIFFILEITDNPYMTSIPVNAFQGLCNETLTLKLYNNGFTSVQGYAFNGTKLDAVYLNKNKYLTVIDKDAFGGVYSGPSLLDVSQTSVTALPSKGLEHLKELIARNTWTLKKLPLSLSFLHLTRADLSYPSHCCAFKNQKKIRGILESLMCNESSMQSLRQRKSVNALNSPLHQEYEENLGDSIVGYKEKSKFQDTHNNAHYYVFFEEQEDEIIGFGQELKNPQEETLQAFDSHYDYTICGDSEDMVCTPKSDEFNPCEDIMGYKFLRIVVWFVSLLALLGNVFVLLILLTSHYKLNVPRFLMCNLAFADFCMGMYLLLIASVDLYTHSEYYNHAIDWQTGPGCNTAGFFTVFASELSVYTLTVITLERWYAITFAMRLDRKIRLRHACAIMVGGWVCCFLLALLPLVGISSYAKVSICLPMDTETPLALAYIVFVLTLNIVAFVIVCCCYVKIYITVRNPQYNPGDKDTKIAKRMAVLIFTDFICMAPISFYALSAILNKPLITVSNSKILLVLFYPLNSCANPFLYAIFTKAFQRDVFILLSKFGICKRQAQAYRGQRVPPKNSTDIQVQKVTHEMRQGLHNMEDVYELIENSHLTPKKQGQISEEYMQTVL
AC50 [µM],Emax [%],Maximum Activity compared to TSH,SMILES
25.1,59,,COc1ccc(-c2nc3ccccc3c(=O)n2Cc2ccccc2)cc1CNc1ccc(CC(C)=O)cc1 [Structure 82]
7.08,79,,COc1ccc(C2Oc3ccc(NC(C)=O)cc3C(=O)N2Cc2cccc(Cl)c2)cc1COc1ccc(NC(C)=O)cc1 (stereo not drawn) [Structure 83]
7.94,,47.53,COc1ccc(C2N(Cc3ccccc3)C(=O)c3ccccc3N2C)cc1COc1ccc(NC(C)=O)cc1 (stereo not drawn) [Structure 84]
,,54.95,COc1ccc([C@H]2[C@H](c3ccccc3)C(=O)N2Cc2ccccc2)cc1COc1ccc(NC(C)=O)cc1 [Structure 85]
6.31,,51.11,COc1ccc(C2Nc3ccccc3C(=O)N2Cc2cccc3ccccc23)cc1COc1ccc(NC(C)=O)cc1 (stereo not drawn) [Structure 86]
3.98,38,,COc1ccc(OCc2cc(C3Nc4ccccc4C(=O)N3Cc3ccccc3)ccc2OC)cc1 (stereo not drawn) [Structure 87]
5.62,30.5,,COc1ccc(C2Nc3ccccc3C(=O)N2Cc2ccccc2C(F)(F)F)cc1COc1ccc(NC(C)=O)cc1 (stereo not drawn) [Structure 88]
25.1,,129.12,COc1ccc(C2Nc3ccccc3C(=O)N2Cc2ccco2)cc1COc1ccc(NC(C)=O)cc1 (stereo not drawn) [Structure 89]
,,110.89,COc1ccc([C@H]2[C@H](c3ccccc3)C(=O)N2Cc2ccccc2)cc1COc1ccc(NC(C)=O)cc1 [Structure 90]
15.8,,88.07,COc1ccc(C2Nc3ccccc3C(=O)N2Cc2ccco2)cc1COc1ccc(NC(C)=O)cc1 (stereo not drawn) [Structure 91]
31.6,,133.48,COc1ccc(C(=O)N(Cc2ccccc2)Cc2cccs2)c(O)c1 [Structure 92]
28.2,,111.66,COc1ccc(C(=O)N(Cc2ccccc2)Cc2cccs2)c(O)c1 [Structure 93]
25.1,,160.25,COc1ccc(C2Nc3ccccc3C(=O)N2Cc2ccco2)cc1COc1ccc(NC(C)=O)cc1 (stereo not drawn) [Structure 94]
12.6,,138.18,COc1ccc(-c2nc3ccccc3c(=O)n2Cc2ccccc2)cc1COc1ccc(NC(C)=O)cc1 [Structure 95]
14.1,125,,COc1ccc(CN(Cc2ccccc2)C(=O)c2ccco2)cc1COc1ccc(NC(C)=O)cc1 [Structure 96]
15.8,,132.18,COc1ccc(-c2nc3ccccc3c(=O)n2Cc2ccccc2)cc1COc1ccc(NC(C)=O)cc1 [Structure 97]
14.1,,140.53,COc1ccc(CN(Cc2ccccc2)C(=O)c2ccccc2)cc1COc1ccc(NC(C)=O)cc1 [Structure 98]
35.5,104,,COc1ccc(C2Nc3ccccc3C(=O)N2Cc2cccnc2)cc1COc1ccc(NC(C)=O)cc1 (stereo not drawn) [Structure 99]
35.5,,190.35,COc1ccc(CN(Cc2ccccc2)C(=O)c2ccccc2N)cc1COc1ccc(NC(C)=O)cc1 [Structure 100]
28.2,,128.51,COc1ccc(C(=O)N(Cc2ccco2)Cc2cccs2)c(O)c1 [Structure 101]
15.8,88.7,,COc1ccc(C(=O)N(Cc2ccccc2)Cc2ccco2)c(O)c1 [Structure 102]
15.8,,106.72,COc1ccc(C(=O)N(Cc2cccs2)Cc2cccs2)c(O)c1 [Structure 103]
39.8,,122.31,COc1ccc(CN(Cc2ccccc2)C(=O)c2ccc(O)cc2)cc1COc1ccc(NC(C)=O)cc1 [Structure 104]

AC50 [µM],Emax [%],Maximum Activity compared to TSH,SMILES
17.8,126,,COc1ccc(C2Nc3ccc(NC(C)=O)cc3C(=O)N2Cc2ccccc2)cc1COc1ccc(NC(C)=O)cc1 (stereo not drawn) [Structure 105]
17.8,45.4,,COc1ccc(C2Nc3cccc(OC)c3C(=O)N2Cc2ccccc2)cc1COc1ccc(NC(C)=O)cc1 (stereo not drawn) [Structure 106]
31.6,63.7,,COc1ccc(C2Nc3ccccc3C(=O)N2Cc2ccc(CNC(=O)CO)cc2)cc1COc1ccc(NC(C)=O)cc1 (stereo not drawn) [Structure 107]
15.8,,63.12,COc1ccc(C(=O)N(Cc2cccs2)Cc2cccs2)c(O)c1 [Structure 108]
17.8,47.5,,COc1ccc(CNc2ccccc2C(=O)NCc2ccccc2)cc1COc1ccc(NC(C)=O)cc1 [Structure 109]
22.4,,48.00,COc1ccc(-c2nc3ccc(NC(C)=O)cc3c(=O)n2Cc2cccc(Cl)c2)cc1COc1ccc(NC(C)=O)cc1 [Structure 110]
35.5,,98.46,COc1ccc(C2Nc3ccccc3C(=O)N2Cc2cccnc2)cc1COc1ccc(NC(C)=O)cc1 (stereo not drawn) [Structure 111]
15.8,,60.92,COc1ccc(C(=O)N(Cc2ccco2)Cc2cccs2)c(O)c1 [Structure 112]
39.8,63.8,,O=C(c1ccccc1O)N(Cc1ccco1)Cc1cccs1 [Structure 113]
25.1,,51.15,COc1ccc(C(=O)N(Cc2ccccc2)Cc2ccccc2)c(O)c1 [Structure 114]
39.8,,66.81,COc1ccc(C2Nc3ccccc3C(=O)N2Cc2ccccn2)cc1COc1ccc(NC(C)=O)cc1 (stereo not drawn) [Structure 115]
35.5,54.6,,COc1ccc(-c2nc3ccccc3c(=O)n2Cc2ccc(CNC(=O)CO)cc2)cc1COc1ccc(NC(C)=O)cc1 [Structure 116]
44.7,,87.19,COc1ccc(CN(Cc2ccccc2)C(=O)c2ccncc2)cc1COc1ccc(NC(C)=O)cc1 [Structure 117]
28.2,,96.91,COc1ccc(C(=O)N(Cc2ccccc2)Cc2ccco2)c(O)c1 [Structure 118]
14.1,,56.31,COc1ccc(C2Nc3ccc(Cl)cc3C(=O)N2Cc2ccccc2)cc1COc1ccc(NC(C)=O)cc1 (stereo not drawn) [Structure 119]
15.8,40.5,,COc1ccc(C(=O)N(Cc2ccccc2)Cc2ccccc2)cc1COc1ccc(NC(C)=O)cc1 [Structure 120]
39.8,,38.00,COc1ccc(C(=O)N(Cc2ccco2)Cc2ccco2)c(O)c1 [Structure 121]
50.1,,61.90,COc1ccc(C(=O)N(Cc2ccco2)Cc2ccco2)c(O)c1 [Structure 122]
14.1,,83.18,COc1ccc(C2Nc3ccc(Cl)cc3C(=O)N2Cc2ccccc2)cc1COc1ccc(NC(C)=O)cc1 (stereo not drawn) [Structure 123]
31.6,,62.73,COc1ccc(CN(Cc2ccccc2)C(=O)c2ccc(OC)cc2O)cc1 [Structure 124]
39.8,56.4,,COc1ccc(C2Nc3ccccc3C(=O)N2Cc2ccncc2)cc1COc1ccc(NC(C)=O)cc1 (stereo not drawn) [Structure 125]
17.8,,36.00,COc1ccc(-c2nc3ccccc3c(=O)n2Cc2ccc(CNC(=O)CO)cc2)cc1COc1ccc(NC(C)=O)cc1 [Structure 126]
14.1,38,,COc1ccc(C2Nc3ccccc3C(=O)N2Cc2ccccc2)cc1COc1cccc(C)c1 (stereo not drawn) [Structure 127]
